Reference: patent US11058702B2 (EMEK, Inc., priority 2014, dated 2021)
Where two headings read alike, the source gives them in different places.

Key:
[1] = test system: human bladder cancer cell line; settings: IUdR for 48 hours prior to one-hour exposure to cisplatin; cited from earlier work
[2] = test system: cellular DNA of tumor and normal tissues; test: Clinical Phase I/II trials of ci IUdR + RT: % IUdR-DNA cellular incorporation, plasma level, toxicity; type: in vivo, human
Experimental: In the prior clinical Phase I and II trials of continuous intravenous infusions of IUdR+RT for high-grade gliomas (Table 1), high-grade sarcomas (Table 2), in patients with liver metastases for colorectal cancer, and in patients with head and neck cancers, the % IUdR-DNA cellular incorporation was measured in tumor tissue as well as normal tissues, including normal liver and in circulating blood cells (granulocytes).

[3] = test system: cellular DNA of tumor and normal tissues; settings: cited from earlier work
in vivo = test: in vivo
Experimental: No further dose escalations were used because of the increased risk of pulmonary aspiration with larger drug volumes (≥2000 mg/kg/d).

[4] = test system: high-grade primary brain tumors; settings: cited from earlier work; for Median survival (Months): RT + IUdR
[5] = test system: human bladder and cervical cancer cells; settings: cited from earlier work
[6] = IV or IA IUdR; cited from earlier work
[7] = IV IUdR
high-grade sarcomas = settings: cited from earlier work
[8] = test system: cellular DNA of tumor and normal rectal mucosa; settings: cited from earlier work
[9] = test system: cellular DNA of tumor and normal rectal mucosa; test: Clinical trial of ci BUdR in locally advanced cervical cancer: DNA incorporation; type: in vivo, human

Question: For `O=c1[nH]c(=O)n([C@H]2C[C@H](O)[C@@H](CO)O2)cc1I` [IUdR, 5-iodo-2′-deoxyuridine], which “dose-modifying factors at 10% survival” value [1] is on record?
Answer: up to 3.5

Question: What about the DNA-replacement/day ([2]; ci IUdR 1000 mg/M^2, H&N SCC) of the same compound?
Answer: 1.3%

Question: What about the “TI of ci IUdR in the clinical studies” value ([2]; from % IUdR-DNA incorporation at grade 3 or 4 toxicities) of the same compound?
Answer: ~1

Question: What about the “% IUdR-DNA levels” value ([3]; 5-7 day ci IUdR infusion, locally advanced head & neck cancers) of the same compound?
Answer: > 5%

Question: What about the “IUdR-DNA tumor cell levels (plateau)” value ([3]; ci IUdR 1000 mg/M^2, within 5 days, H&N SCC) of the same compound?
Answer: 7.5-8%

Question: What about the “steady state plasma concentration” value ([3]; ci IUdR exposure that produced clinical responses) of the same compound?
Answer: 1 µM

Question: And the local control ([3]; ci IUdR+RT, locally advanced head & neck cancers)?
Answer: high local control rate

Question: And the “% IUdR-DNA levels in peripheral granulocytes that predicted systemic bone marrow toxicity” value ([3]; ci IUdR)?
Answer: 6%

Question: What about the “plasma level of IUdR to achieve >3% IUdR-DNA cellular incorporation” value ([3]; ci IUdR) of the same compound?
Answer: > 1000 nM

Question: And the “threshold of % IUdR-DNA tumor cell incorporation associated with in vivo radiosensitization” value ([3]; human, in vivo)?
Answer: ≥ 3%

Question: What about the “toxicities of prolonged ci of IUdR” value ([3]; human, in vivo) of the same compound?
Answer: myelosuppression and acute GI toxicities

Question: And the “% IUdR-DNA cellular incorporation in tumors” value ([3]; patients with head and neck cancers or liver metastases from colorectal cancer)?
Answer: 5-8%

Question: And the “% IUdR-DNA cellular incorporation in adjacent normal liver tissue” value ([3]; patients with liver metastases)?
Answer: less than 1%

Question: And the weight loss (in vivo; ci IUdR 100 mg/kg/d, by day 6)?
Answer: ≥ 20%

Question: And the “GI toxicity, body weight loss” value (in vivo; ci IUdR×6-14 days, xenograft studies)?
Answer: > 20%

Question: What about the MTD at 4 days (in vivo; mouse, in vivo, po, 250 mg/kg/d) of the same compound?
Answer: 250 mg/kg/day

Question: And the “Median survival (Months)” value ([4]; Anaplastic astrocytomas (Grade 3 of 4), RT alone 24)?
Answer: 39 Months

Question: What about the “Median survival (Months)” value ([4]; Glioblastoma Multiforme (Grade 4 of 4), RT alone 9) of the same compound?
Answer: 15 Months

Question: What about the “prolongation of survival compared to RT alone” value ([4]; ci IUdR+RT) of the same compound?
Answer: greater than 50%

Question: And the radiation sensitizer enhancement ([5]; IUdR (2 μM) + hydroxyurea)?
Answer: approximately 1.75

Question: And the “increase in IdUTP pools and IUdR-DNA incorporation” value ([5]; IUdR (2 μM) + non-cytotoxic doses of hydroxyurea)?
Answer: 2 fold

Question: And the plasma half-life [6]?
Answer: < 5 min

Question: And the LD50 [7]?
Answer: never reached

Question: And the “Local Control at 2 years” value (high-grade sarcomas; High grade sarcomas (resectable), RT + IUdR + Surgery, RT + Surgery 25%)?
Answer: 45%

Question: What about the “Local Control at 2 years” value (high-grade sarcomas; High grade sarcomas (un-resectable), RT + IUdR, RT alone <10%) of the same compound?
Answer: 60%

Question: For `O=c1[nH]c(=O)n([C@H]2C[C@H](O)[C@@H](CO)O2)cc1Br` [BUdR, bromodeoxyuridine], which “tumor cell IUdR-DNA incorporation” value ([8]; ci BUdR 1000 mg/M^2/day×4 days, Day 5) is on record?
Answer: 5-8%

Question: What about the “IUdR-DNA incorporation in adjacent normal rectal mucosa cells” value ([8]; ci BUdR) of the same compound?
Answer: 3-4%

Question: And the “ratio of tumor to rectum” value [9]?
Answer: 1.5-1.8 fold
